Data on 20 compounds can be found in patent US5627193A, “Quinoline-4-carbonylguanidine derivatives, process for producing the same and pharmaceutical preparations containing the compounds” (Mitsui Toatsu Chemicals, Inc., priority 1995, dated 1997).

Data set [1] addresses T1, NHE (Na^+ /H^+ exchanger) (Rattus norvegicus, UniProt P26431).
T1 construct: A rat mesenteric artery was isolated; from tissue; host or cells: isolated rat mesenteric artery segments
The data set is described as follows: NHE inhibitory activity (recovery of the pH in cells after acid load, BCECF, rat mesenteric artery). The class given is cell-based. Conditions: read-out: Percent NHE inhibition (%); for inhibition at 0.1 µM: Conc. 0.1 μM; for inhibition at 1 µM: Conc. 1 μM. As for the experimental part: The NHE inhibitory activity was measured by the following method using a pH in cells as an index.
A rat mesenteric artery was isolated, and was loaded with a pH-sensitive dye BCECF. Subsequently, the tissue segments were mounted in a bath of an intracellular ion concentration measurement device (CAF-110, manufactured by Japan Spectral Co., Ltd.). The pH in cells was measured in terms of a ratio of fluorescent intensities through 2-wavelength excitation of 495 nm (pH-sensitive wavelength)/450 nm (pH-non-sensitive wavelength).
The pH in cells was shifted into acid through pretreatment with 20 mM ammonium chloride to activate NHE. At this time, when Na^+ ions were absent in an external solution, the intracellular acidosis was maintained. When Na^+ ions were present in an external solution, the pH in cells was recovered to a control value. This recovery of the pH in cells was ascribable to the activation of NHE. The NHE inhibitory activity of the medication was examined depending on whether or not this recovery was suppressed. The percent NHE inhibition was calculated from a change in pH (ΔpH) measured by the above-mentioned method using the following formula.
Percent NHE inhibition (%)={1-ΔpH (in the presence of a medication)/ΔpH (in the absence of a medication)}×100
This test was conducted by the method of C. D. Foster et al. [Am. J. Physiol., 262, 31, H1651-H1655 (1992)]. For comparison, the test was conducted with respect to guanidinocarbonylisoquinoline derivatives described in JP A 6-211799 (Family: EP590455).

For the next data set, the system named is rat. Briefly: Effect on ischemic arrhythmia in the rat (left coronary artery ligated for 30 minutes). As to conditions: 1 mg/kg i.v., five minutes before the ligation; rats with arrhythmia / rats. The class given is in vivo. Here is the method: A rat was anesthetized with pentobarbital, and the left chest was opened under artificial respiration. Then, the left coronary artery was ligated for 30 minutes. The effect of the test compound on ischemic arrhythmia was examined. The test agent was administered intravenously (i.v.) five minutes before the ligation. The arrhythmias were evaluated according to the guidelines of the Lambeth conventions [Cardiovasc. Res., 22, 447-455 (1988)].

A short description of data set [2]: Toxicity test, mortality of mice after 24 hours. Conditions: mouse, in vivo, iv, 100 mg/kg (i.v.), 3 mice. As for the experimental part:
The test compound was administered to a ddy-strain male mouse, and the toxicity was examined. The test compound was administered intravenously (i.v.) in a dose of 100 mg/kg, and the toxicity was evaluated in terms of mortality of mice after 24 hours of the administration (number of specimens: one group consisting of 3 mice).

The next data set concerns cardiac hypertrophy. Conditions: Circulation, 86 (Suppl. I) I-177 (1992); cited from earlier work.

T1 sequence (P26431 whole entry): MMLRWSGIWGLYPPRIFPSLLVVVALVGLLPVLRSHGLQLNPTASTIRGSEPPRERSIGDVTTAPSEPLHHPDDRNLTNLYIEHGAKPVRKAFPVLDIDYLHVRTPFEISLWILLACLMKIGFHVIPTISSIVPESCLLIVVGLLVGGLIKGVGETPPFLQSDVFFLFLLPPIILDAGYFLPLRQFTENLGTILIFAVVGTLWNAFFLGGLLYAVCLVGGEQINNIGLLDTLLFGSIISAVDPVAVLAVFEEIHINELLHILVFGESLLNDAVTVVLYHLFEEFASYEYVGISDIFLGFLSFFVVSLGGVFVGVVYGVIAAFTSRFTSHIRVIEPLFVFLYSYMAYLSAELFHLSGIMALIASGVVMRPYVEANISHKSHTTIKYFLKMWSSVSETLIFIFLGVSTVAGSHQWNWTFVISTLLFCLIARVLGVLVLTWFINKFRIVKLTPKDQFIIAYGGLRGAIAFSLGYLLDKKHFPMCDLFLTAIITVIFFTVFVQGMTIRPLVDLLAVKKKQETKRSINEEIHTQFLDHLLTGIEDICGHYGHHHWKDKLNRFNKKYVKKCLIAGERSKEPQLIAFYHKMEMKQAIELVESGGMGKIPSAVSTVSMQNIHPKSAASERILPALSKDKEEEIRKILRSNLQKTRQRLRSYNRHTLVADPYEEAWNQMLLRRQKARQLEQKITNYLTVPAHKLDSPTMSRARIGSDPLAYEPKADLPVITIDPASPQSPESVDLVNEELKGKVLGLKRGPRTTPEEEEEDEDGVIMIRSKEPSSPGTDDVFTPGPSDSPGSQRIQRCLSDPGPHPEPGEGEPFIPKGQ
T1 sequence (P61023 2-195 partner limits assumed): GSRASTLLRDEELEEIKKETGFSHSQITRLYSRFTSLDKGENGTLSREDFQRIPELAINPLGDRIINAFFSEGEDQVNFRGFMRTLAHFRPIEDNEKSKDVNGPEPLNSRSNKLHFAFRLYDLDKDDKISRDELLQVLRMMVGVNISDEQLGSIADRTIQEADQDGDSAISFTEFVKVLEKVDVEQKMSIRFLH

Broadly, the inhibition is the drop in the measured response relative to a control, in per cent. `Cc1cccc2c(C(=O)N=C(N)N)cc(-c3ccccc3)nc12` [Example 24, 2-phenyl-8-methylquinoline-4-carbonylguanidine]: in data set [1], the inhibition at 0.1 µM stood at 8.1% and the inhibition at 1 µM is 50%.

`NC(N)=NC(=O)c1cc(-c2ccccc2)nc2cccc(Cl)c12` [Example 28, 2-phenyl-5-chloroquinoline-4-carbonylguanidine]: in data set [1], the inhibition at 0.1 µM stood at 33.7% and the inhibition at 1 µM was found to be 63.3%.

For `NC(N)=NC(=O)c1cc(-c2ccccc2)nc2ccc(Cl)cc12` [Example 29, 2-phenyl-6-chloroquinoline-4-carbonylguanidine], in data set [1], the inhibition at 0.1 µM worked out at 0% and the inhibition at 1 µM stood at 38.6%.

Turning to `NC(N)=NC(=O)c1cc(-c2ccccc2)nc2c(Cl)cccc12` [Example 31, 2-phenyl-8-chloroquinoline-4-carbonylguanidine], in data set [1], the inhibition at 0.1 µM amounted to 12% and the inhibition at 1 µM stood at 57%.

Turning to `Cc1cc(Cl)cc2c(C(=O)N=C(N)N)cc(-c3ccccc3)nc12` [Example 32, 2-phenyl-6-chloro-8-methylquinoline-4-carbonylguanidine], in data set [1], the inhibition at 0.1 µM amounted to 28.6% and the inhibition at 1 µM came out at 35.7%.

Regarding `COc1ccc2c(C(=O)N=C(N)N)cc(-c3ccccc3)nc2c1` [Example 34, 2-phenyl-7-methoxyquinoline-4-carbonylguanidine], in data set [1], the inhibition at 0.1 µM turned out to be 29.8% and the inhibition at 1 µM came out at 53%.

As for `COc1cccc2c(C(=O)N=C(N)N)cc(-c3ccccc3)nc12` [Example 35, 2-phenyl-8-methoxyquinoline-4-carbonylguanidine], in data set [1], the inhibition at 0.1 µM stood at 47.4% and the inhibition at 1 µM was 63.6%.

Take `COc1cc(OC)c2c(C(=O)N=C(N)N)cc(-c3ccccc3)nc2c1` [Example 36, 2-phenyl-5,7-dimethoxyquinoline-4-carbonylguanidine]: in data set [1], the inhibition at 0.1 µM came to 53.2% and the inhibition at 1 µM was 69.9%. Besides, in the data set with rat, the “Incidence of arrhythmia, VF (ventricular fibrillation)” value (“Incidence of arrhythmia, VF” below) is given as 0/4 and the “Incidence of arrhythmia, VT (ventricular tachycardia)” value (“Incidence of arrhythmia, VT” for short) is listed as 2/4.

Regarding `COc1cc(OC)c2c(C(=O)N=C(N)N)cc(-c3ccccc3C)nc2c1` [Example 37, 2-(2'-methylphenyl)-5,7-dimethoxyquinoline-4-carbonylguanidine], in data set [1], the inhibition at 0.1 µM was found to be 70.8% and the inhibition at 1 µM stood at 84.2%. In the data set with rat, the “Incidence of arrhythmia, VF” value is 0/5 and the “Incidence of arrhythmia, VT” value is 3/5.

Consider `COc1cc2nc(-c3ccccc3C)cc(C(=O)N=C(N)N)c2cc1OC` [Example 39, 2-(2'-methylphenyl)-6,7-dimethoxyquinoline-4-carbonylguanidine], for which, in data set [1], the inhibition at 0.1 µM stood at 3.4% and the inhibition at 1 µM turned out to be 41.5%.

On to `COc1cc(OC)c2nc(-c3ccccc3)cc(C(=O)N=C(N)N)c2c1` [Example 40, 2-phenyl-6,8-dimethoxyquinoline-4-carbonylguanidine], for which, in data set [1], the inhibition at 0.1 µM was found to be 18.3% and the inhibition at 1 µM was 31%.

As a reminder, the mortality is the percentage killed. For the compound `COc1ccc(OC)c2c(C(=O)N=C(N)N)cc(-c3ccccc3C)nc12` [Example 42, 2-(2'-methylphenyl)-5,8-dimethoxyquinoline-4-carbonylguanidine], in data set [1], the inhibition at 0.1 µM was determined as 72.7% and the inhibition at 1 µM amounted to 89.1%. The compound further had a mortality at 24 h in data set [2] of 0%. Besides, in the data set on rat, the “Incidence of arrhythmia, VF” value is reported as 0/4 and the “Incidence of arrhythmia, VT” value is given as 2/4.

For the compound `COc1ccc2c(C(=O)N=C(N)N)cc(-c3ccccc3C)nc2c1OC` [Example 43, 2-(2'-methylphenyl)-7,8-dimethoxyquinoline-4-carbonylguanidine], in data set [1], the inhibition at 0.1 µM amounted to 28% and the inhibition at 1 µM is 37.6%.

Consider `COCCOc1cccc2c(C(=O)N=C(N)N)cc(-c3ccccc3)nc12` [Example 44, 2-phenyl-8-methoxyethyloxyquinoline-4-carbonylguanidine], for which, in data set [1], the inhibition at 0.1 µM amounted to 28.4% and the inhibition at 1 µM was determined as 62.9%.

With `COCOc1ccc2c(C(=O)N=C(N)N)cc(-c3ccccc3C)nc2c1` [Example 45, 2-(2'-methylphenyl)-7-methoxymethyloxyquinoline-4-carbonylguanidine], in data set [1], the inhibition at 0.1 µM was 35% and the inhibition at 1 µM was found to be 46.5%.

Regarding `Cc1ccccc1-c1cc(C(=O)N=C(N)N)c2ccc(O)cc2n1` [Example 46, 2-(2'-methylphenyl)-7-hydroxyquinoline-4-carbonylguanidine], in data set [1], the inhibition at 0.1 µM was 39.3% and the inhibition at 1 µM worked out at 48.8%.

With `NC(N)=NC(=O)c1cc(-c2ccccc2)nc2c(N)cccc12` [Example 48, 2-phenyl-8-aminoquinoline-4-carbonylguanidine], in data set [1], the inhibition at 0.1 µM is 30.6% and the inhibition at 1 µM is 41.7%.

For `CC(=O)Nc1cccc2c(C(=O)N=C(N)N)cc(-c3ccccc3)nc12` [Example 49, 2-phenyl-8-acetylaminoquinoline-4-carbonylguanidine], in data set [1], the inhibition at 0.1 µM amounted to 20.8% and the inhibition at 1 µM was determined as 51.2%.

Take `CS(=O)(=O)Nc1cccc2c(C(=O)N=C(N)N)cc(-c3ccccc3)nc12` [Example 50, 2-phenyl-8-methanesulfonylaminoquinoline-4-carbonylguanidine]: in data set [1], the inhibition at 0.1 µM amounted to 46.2% and the inhibition at 1 µM was found to be 66.2%.

In the case of `N=C(N)NC(=O)c1nc(Cl)c(N)nc1N` [amiloride], the “suppression of cardiac hypertrophy” value in the data set on cardiac hypertrophy was “suppresses cardiac hypertrophy”.
